According to publication PMC5318461 (Frontiers in Microbiology, 2017):
Where two headings read alike, the source gives them in different places. Numbered stars: 1 amine (or outer) side, 2 acyl side, 3 side chain; on linkers, the order of the positions; unused ones are H or OH. Bridge positions count the residues as written; N and C are the ends. Square brackets hold non-standard residues; d marks the D form. Peptide text beside a SMILES is read from it. I, II: the chains in the order shown. Actinocin(9to1) = Cc1c2oc3c(C)ccc(C(=O)[*:1])c3nc-2c(C(=O)[*:2])c(N)c1=O; NMeV = CN[C@H](C(=O)O)C(C)C; Sar = CNCC(=O)O

Assays:
[1] = test system: Leishmania amazonensis promastigote; assay: In vitro activity against L. amazonensis promastigotes (growth inhibition by cell counting; drugs alone and in checkerboard combination); format: cell-based; conditions: isolated drug; for IC50: 72 h, 25°C, ± SD; for IC90: promastigotes
Procedure: Leishmania amazonensis MHOM/BR/75/Josefa strain was isolated from a human case of cutaneous leishmaniasis by Dr. Cesar A. Cuba, at University of Brasilia, Brazil ([Saraiva et al., 1983]; [Cuba et al., 1985]). These promastigote parasites were maintained in Warren’s medium, consisting of brain heart infusion (Gibco®), hemin (Sigma–Aldrich®), and folic acid (Sigma–Aldrich®), pH 7.2, supplemented with 10% of fetal calf serum (FCS – Invitrogen®) and incubated at 25°C.
The same procedure was carried out with axenic amastigote forms, using 12-wells microplate. After incubation during 72 h, at 25 and 32°C for promastigote and axenic amastigote forms, respectively, viable cells were counted with hemocytometer supporting.
Briefly, promastigotes, axenic and intracellular amastigotes were prepared even as previously described (see the section In vitro Activity against L. amazonensis) as well the macrophages and erythrocytes, according to the section Cytotoxicity and Hemolysis Assays. […] Thus, the compounds were singly evaluated in the first row and column and the checkerboard model supported the drug combination in the other wells. Next, the parasites were added and, after incubation, as described above, it was possible to determine the IC50 for the association. Finding the behavior of each association, the CI was calculated from the formula:
CI=(IC50 compound A associated/IC50 compound A alone)+(IC50 compound B associated/IC50 compound B alone)
CI values lower, equal and greater than one indicate, respectively, synergistic, additive and antagonistic profile of association tested, according established by [Chou and Talalay (1984)] and [Chou (2010)].
(§1) Scanning electron microscopy was carried out to analyze the morphologic alterations on cell surface topography. […] After incubation for 72 h, at 25°C, the samples were fixed in 2.5% glutaraldehyde in 0.1 M sodium cacodylate buffer (Electron Microscopy Sciences – EMS®) for 24 h. It used poly-L-lysine (Electron Microscopy Sciences – EMS®) to promote the fixed parasites adhesion over coverslips, which were dehydrated with increasing concentration of ethanol (30, 40, 50, 60, 70, 80, 90, 95, 100% – Sigma–Aldrich®). The samples were critical-point-dried (Baltec SCD-030) in CO2 to remove any water trace, placed on appropriate stub to coat with gold alloy. The micrographs were obtained by analysis in Shimadzu SS-550 scanning electron microscope (SEM).

[2] = test system: Leishmania amazonensis axenic amastigote; assay: In vitro activity against L. amazonensis axenic amastigotes (growth inhibition by cell counting; alone and checkerboard combination); format: cell-based; conditions: isolated drug, 72 h, 32°C, ± SD
Procedure: Axenic amastigote forms were obtained from L. amazonensis promastigotes. For this, promastigote forms in phase log of growth were cultivated in Warren’s medium, pH 7.2, supplemented with 20% FCS and incubated at 25°C, during 48 h. Next, the parasites were maintained at 30°C, for 24 h, and at 32°C until differentiation in amastigote forms. Axenic amastigotes were maintained in Schneider insect’s medium (Sigma–Aldrich®), pH 4.6, supplemented with 20% of FCS, at 32°C ([Ueda-Nakamura et al., 2001]).

[3] = test system: L. amazonensis intracellular amastigotes; assay: Activity against L. amazonensis intracellular amastigotes in peritoneal macrophages (survival index; alone and checkerboard combination); format: cell-based, Leishmania amazonensis; conditions: isolated drug, 48 h, ± SD, read-out: IC50 Intracellular amastigote
Procedure: Furthermore, the activity of these drugs against L. amazonensis intracellular amastigotes was also evaluated. For this, intraperitoneal macrophages were harvested from the males BALB/c mice, by injection of cold phosphate-saline buffer (PBS) plus FCS 3% inner the peritoneal cavity. After centrifugation, a suspension of 5 × 10^5 macrophages in RPMI was placed on glass coverslips in 24-wells microplate and incubated during 2 h, at 37°C and 5% CO2 atmosphere, for cellular adhesion. After this period, the wells were washed and the macrophages were infected with L. amazonensis promastigotes in stationary phase (5–6 days) at a ratio of 7 parasites/1 mammalian cell, during 4 h, at 34°C and 5% CO2 tension and then, the tested compounds were added during 48 h ([Kaplum et al., 2016]). At the end of this period, the glass coverslips were subject to fixation with methanol during 10 min and stained with 10% Giemsa stain (GIBCO KaryoMax® Giemsa), for 40 min. Then, a total of 200 macrophages were counted under light microscope, distinguishing infected cells and amastigote parasites. Thereby, the survival index (SI = infected cells percentage × amastigote average per infected macrophage) was calculated considering 100% of survival for the untreated negative control (NC). It was subsequently possible to carry out the comparison with samples treated for IC50 calculation purposes.

[4] = Cytotoxicity on J774.A1 macrophages (MTT; alone and checkerboard combination); format: cell-based, Murine; conditions: mouse, J774.A1 macrophages, pH 7.6, isolated drug, ± SD, read-out: CC50 J774.A1 Macrophage
Text: (§2) As positive control, it used Triton X (Synth®) surfactant. […] (2010)].

[5] = test system: L. amazonensis promastigote; assay: Cell membrane integrity by propidium iodide, flow cytometry; format: cell-based, Leishmania amazonensis; conditions: 24 h, 25°C; miltefosine 173.32 μM; BZTS + miltefosine 13.86 μM + 37.78 μM; digitonin 40 μM
Procedure: For these studies, the treated protozoa were incubated during 24 h, at 25°C. L. amazonensis promastigote cells were prepared according item 2.7. After incubation, the samples were washed in PBS 0.01 M and incubated with 50 μL of propidium iodide (PI – Sigma–Aldrich®) 2 mg/mL at 25°C, for 5 min. Membrane rupture allows the entrance of PI and its binding to cell DNA. Cell membrane integrity was measured according PI fluorescence, on BD FACSCalibur flow cytometer, in which 10,000 events were evaluated by CellQuest Pro software. Digitonin saponin 40 μM (Sigma–Aldrich®) was used as positive control and the fluorescence measurement were compared with NC fluorescence.

[6] = test system: L. amazonensis promastigote; assay: Volume analysis of promastigote forms, flow cytometry (FSC-H); format: cell-based, Leishmania amazonensis; conditions: 24 h; miltefosine 173.32 μM; BZTS + miltefosine 13.86 μM + 37.78 μM; actinomycin D positive control
Procedure: For these studies, the treated protozoa were incubated during 24 h, at 25°C.
After to treat 1 × 10^7 promastigote forms with […] actinomycin D (positive control – Sigma–Aldrich®), isolated miltefosine and BZTS with miltefosine, the samples were washed two times with PBS 0.01 M and incubated. Cell volume was measured on BD FACSCalibur flow cytometer and 10,000 events were analyzed by CellQuest Pro software.

[7] = test system: L. amazonensis promastigote; assay: Mitochondrial transmembrane potential (rhodamine 123), flow cytometry; format: cell-based, Leishmania amazonensis; conditions: 24 h; 2 × IC90
Procedure: For these studies, the treated protozoa were incubated during 24 h, at 25°C. Parasites were prepared according 2.7.1 item, including positive control. […] At the same way described above, 10,000 events were evaluated on flow cytometer BD FACSCalibur and the data were analyzed by CellQuest Pro software.

[8] = test system: peritoneal macrophages infected with L. amazonensis; assay: Nitric oxide measurement (DAF-FM DA) on infected macrophages; format: cell-based, BALB/c mice; conditions: IC50 and IC90, 48 h, 34°C
Procedure: Furthermore, the activity of these drugs against L. amazonensis intracellular amastigotes was also evaluated. For this, intraperitoneal macrophages were harvested from the males BALB/c mice, by injection of cold phosphate-saline buffer (PBS) plus FCS 3% inner the peritoneal cavity. After centrifugation, a suspension of 5 × 10^5 macrophages in RPMI was placed on glass coverslips in 24-wells microplate and incubated during 2 h, at 37°C and 5% CO2 atmosphere, for cellular adhesion. After this period, the wells were washed and the macrophages were infected with L. amazonensis promastigotes in stationary phase (5–6 days) at a ratio of 7 parasites/1 mammalian cell, during 4 h, at 34°C and 5% CO2 tension and then, the tested compounds were added during 48 h ([Kaplum et al., 2016]). […] Then, a total of 200 macrophages were counted under light microscope, distinguishing infected cells and amastigote parasites. Thereby, the survival index (SI = infected cells percentage × amastigote average per infected macrophage) was calculated considering 100% of survival for the untreated negative control (NC). […]
Promastigote forms and infected macrophages were incubated at 25°C for 72 h and 34°C for 48 h, respectively. […] Fluorescence was measured on fluorometer Perkin-Elmer Victor X3, at λex = 495 nm and λem = 515 nm.

[9] = test system: non-infected macrophages; assay: Nitric oxide measurement (DAF-FM DA) on non-infected macrophages; format: cell-based; conditions: IC50 and IC90
[10] = test system: L. amazonensis promastigote; assay: Detection of lipid droplets using Nile Red dye (fluorometry); format: cell-based, Leishmania amazonensis
Procedure: Parasites were prepared and standardize in accordance to item 2.8.1. Next, 5 μL of Nile Red (Sigma–Aldrich®) 1 mg/mL methanol were added to treated parasites and incubated during 30 min, at dark and room temperature. Fluorescence was measured on Perkin-Elmer Victor X3 fluorometer, at λex = 485 nm e λem = 535 ([Greenspan et al., 1985]). Nile Red is a phenoxazone dye that fluoresces intensely at yellow–gold color in the presence of triacylglycerols, cholesterol, or cholesterol esters, considered neutral lipids ([Fowler and Greenspan, 1985]).

[11] = test system: L. amazonensis promastigote; assay: Scanning electron microscopy of treated promastigotes; format: cell-based, Leishmania amazonensis; conditions: IC50 and IC90, 72 h, 25°C
Procedure: as §1

[12] = test system: L. amazonensis promastigote; assay: Transmission electron microscopy of treated promastigotes; format: cell-based, Leishmania amazonensis; conditions: IC50 and IC90, 72 h, 25°C
Procedure: In order to evaluate the ultrastructure changes in the treated parasites, promastigote forms were treated and fixed according described above. These samples were post-fixed with 1% OsO4 (Electron Microscopy Sciences – EMS®) and 0.8% potassium ferrocyanide (Electron Microscopy Sciences – EMS®), in the dark, during 60 min, at room temperature. This procedure increases the contrast to link with lipids. The samples were washed in 0.1 M sodium cacodylate buffer and dehydrated in increased concentration of acetone (50, 70, 80, 90, 95, 100% – Sigma–Aldrich®). All acetone content was replaced by cell diffusion for EPON^TM epoxy resin, gradually, and after 48 h, at 60°C, the resin was polymerized. Nanometric cuts (60–70 nm) were obtained on ultramicrotome (Power Tome X RMC Products), contrasted with 5% uranyl acetate (Electron Microscopy Sciences – EMS®) and 2% lead citrate (Electron Microscopy Sciences – EMS®). Finally, the samples were analyzed by transmission electron microscope (TEM) JEOL – JEM 1400.

[13] = Hemolysis assay (hemoglobin release; alone and checkerboard combination); conditions: sheep, 6% erythrocyte suspension from defibrinated sheep blood
Procedure: (§3) Assessing the possibility of drug-induced hemolysis, the hemolytic activity was evaluated in vitro from defibrinated sheep blood, commercially obtained (Laborclin; lot n° 51109038). Erythrocyte suspension at 6% was prepared by centrifugation in 2,000 × g, for 10 min and placed in 96-wells with the different concentrations of each compound. As positive control, it used Triton X (Synth®) surfactant. After 2 h at 37°C, all samples were centrifuged for 3 min, and the supernatant was harvested to verify the hemoglobin release by the absorbance measured in 540 nm.

[14] = test system: L. amazonensis promastigote; assay: Phosphatidylserine exposure (Annexin-V-FITC / PI), flow cytometry; format: cell-based, Leishmania amazonensis; conditions: 24 h; miltefosine 173.32 μM; BZTS 13.86 μM + miltefosine 37.78 μM; CCCP 100 μM
Procedure: For these studies, the treated protozoa were incubated during 24 h, at 25°C. […] At the end of 24 h, the samples were washed in 0.01 M PBS and resuspended in 100 μL of binding buffer (140 mM NaCl; 5 mM CaCl2; 10 mM HEPES-Na; pH 7.4), followed by the addition of 5 μL of the Annexin-V-FITC conjugated (Molecular Probes®). After 15 min of incubation, 400 μL of binding buffer and 50 μL of PI were added. […] Data acquisition (10,000 events) and analysis were carried out on flow cytometer BD FACSCalibur, equipped with CellQuest Pro software. Necrosis processes were identified by PI fluorescence in the cells while apoptotic cells were labeled with Annexin-V-FITC, regardless of the PI behavior.

[15] = test system: J774.A1 macrophages; assay: Cytotoxicity on J774.A1 macrophages (MTT; alone and checkerboard combination); format: cell-based, Murine; conditions: isolated drug, 48 h, ± SD, read-out: CC50 J774.A1 Macrophage
Text: as §2

[16] = test system: L. amazonensis promastigote; set-up: method as in Britta et al. (2014); conditions: ref Britta et al. (2014); cited from earlier work
[17] = test system: L. amazonensis promastigote; set-up: method as in Britta et al. (2014); conditions: ref Britta et al. (2014); cited from earlier work; remark: listed apart in the source
[18] = test system: erythrocytes; assay: Hemolysis assay (hemoglobin release; alone and checkerboard combination); conditions: read-out: CC50 Erythrocytes; isolated drug; defibrinated sheep blood, 6% erythrocyte suspension, 2 h, 37°C; ± SD
Procedure: as §3

CCCCCCCCCCCCCCCCOP(=O)([O-])OCC[N+](C)(C)C [Miltefosine, hexadecyl-phosphocholine]
IC50 ([1]; Leishmania amazonensis): 20.8 ± 0.25 µM
IC90 ([1]; Leishmania amazonensis): 86.7 µM
IC50 ([2]; Leishmania amazonensis): 0.79 ± 0.48 µM
IC50 ([3]; Leishmania amazonensis, Peritoneal macrophage): 1.82 ± 0.2 µM
CC50 at 48 h [4]: 55.1 ± 1.97 µM
PI fluorescence (cells that lost plasma membrane integrity) [5]: 81.18%
cells with volume reduction compared to untreated parasites [6]: 10.45%
Rh 123 fluorescence intensity (in words) [7]: strong decrease
NO production, infected macrophages [8]: NO production increased from low concentration
NO production, non-infected macrophages [9]: induced the NO production
Lipid droplets (Nile Red fluorescence) vs NC ([10]; treated at IC90, 24 h): statistical significance
Morphologic alterations by SEM [11]: changes on surface cell and reduction of the flagellum length
Ultrastructure changes by TEM [12]: Disruption of cytoplasmic membrane
CC50 at 2 h [13]: 21.4 ± 0.75 µM

N#CC(C#N)=NNc1cccc(Cl)c1 [CCCP, carbonyl cyanide 3-chlorophenylhydrazone]
cells in late apoptotic process, Annexin-V-FITC and PI fluorescence (upper right quadrant) [14]: 39.98%
cells with only Annexin-V-FITC label (lower right quadrant) [14]: 5.25%

Cc1c2oc3c(C)ccc(C(=O)N[C@@H]4C(=O)N[C@H](C(C)C)C(=O)N5CCC[C@H]5C(=O)N(C)CC(=O)N(C)[C@@H](C(C)C)C(=O)O[C@@H]4C)c3nc-2c(C(=O)N[C@@H]2C(=O)N[C@H](C(C)C)C(=O)N3CCC[C@H]3C(=O)N(C)CC(=O)N(C)[C@@H](C(C)C)C(=O)O[C@@H]2C)c(N)c1=O [Actinomycin D] (I: T[dV]P[Sar][NMeV] / II: T[dV]P[Sar][NMeV]; ester I:1-I:C, II:1-II:C; linker I:N-II:N via Actinocin(9to1))
cells with volume reduction compared to untreated parasites [6]: 51.95%

4-nitro benzaldehyde thiosemicarbazone derived from S-(-)-limonene [BZTS]
IC50 [1]: 4.16 ± 0.78 µM
IC90 [1]: 13.9 µM
IC50 [2]: 8.04 ± 0.37 µM
IC50 [3]: 6.99 ± 1.22 µM
CC50 [15]: 87.5 ± 9.07 µM
NO production, infected macrophages [8]: only in higher concentrations
NO production, non-infected macrophages [9]: induced the NO production
Lipid droplets (Nile Red fluorescence) vs NC ([10]; treated at IC50, 24 h): statistical significance
Lipid droplets (Nile Red fluorescence) vs NC ([10]; treated at IC90, 24 h): statistical significance
Ultrastructure changes by TEM [12]: mitochondrion alterations, like swelling and concentric membranes inner mitochondria
cell volume after BZTS treatment [16]: cell volume decrease
Annexin-V-FITC after BZTS treatment [17]: positive results
CC50 [18]: > 500 µM

C[C@@H]1[C@H](O)[C@@H](C)/C=C/C=C/C=C/C=C/C=C/C=C/C=C/[C@H](O[C@@H]2O[C@H](C)[C@@H](O)[C@H](N)[C@@H]2O)C[C@@H]2O[C@](O)(C[C@@H](O)C[C@@H](O)[C@H](O)CC[C@@H](O)C[C@@H](O)CC(=O)O[C@H]1C)C[C@H](O)[C@H]2C(=O)O [Amphotericin B]
IC50 ([2]; Leishmania amazonensis): 0.43 ± 0.19 µM
CC50 at 48 h [4]: 3.74 ± 0.59 µM
CC50 at 2 h [13]: 51.8 ± 4.34 µM
